Literature values as cited in patent US7645462B2, “Acupoint patch” (3T Herbtech, Inc., priority 2002, dated 2010).

Experiments:
[1] = test system: separated major arteries
[2] = test system: arteria femoralis blood circulation; conditions: intravenous 50 mg/kg, sedated animals

Structure (SMILES) | dilation of separated major arteries [1] | arteria femoralis blood circulation [2] | external blood vessel resistance [2]
COc1cc(/C=C/C(=O)O)ccc1O [ferulic acid] | can dilate |  | 
COc1cc(/C=C/C(=O)O)ccc1O.[Na] [ferulic acid sodium] |  | increased | reduced
